Test results taken from patent publication US20180147206A1, “ACTIVATION OF NEURONAL STORE-OPERATED CALCIUM ENTRY PATHWAY FOR THE TREATMENT OF ALZHEIMER'S DISEASE” (The Board of Regents of the University of Texas System, priority 2015, published 2018).

Assay: In vivo pharmacokinetics (plasma and brain)
Design: species or system mouse
Settings: i.p. 10 mg/kg, female CD-1 mice
Procedure: FIGS. 12A-D. NSN21778 in vitro metabolism stability, in vivo plasma pharmacokinetics, and side effect on body weight (Related to FIGS. 7A-G). (FIG. 12A) The metabolic stability of NSN21778 was evaluated in vitro after incubation with commercial liver S9 fractions in the presence of phase I (NADPH regenerating system) cofactors. Compound levels were determined by LC-MS/MS. Additionally, the stability of NSN21778 in the presence of commercial CD-1 mouse plasma was measured. (FIG. 12B) NSN21778 was dosed i.p. at 10 mg/kg to female CD-1 mice. Levels of NSN21778 in plasma and brain were evaluated by LC-MS/MS. (FIG. 12C) WTGFP, PS1KIGFP and APPKIGFP mice body weight after i.p. administrated with control solution or 10 mg/kg NSN21778 for 10 weeks. Data presented as mean±SE (n=5 mice). […]
In vivo pharmacokinetics. […] The supernatant was then analyzed by LC-MS/MS. […] The limit of quantitation (LOQ) was defined as the lowest concentration at which back calculation yielded a concentration within 20% of the theoretical value and above the LOD signal. […] Because the animals were not perfused prior to tissue isolation, to determine the final brain concentration of NSN21778, the amount of compound in brain due to brain vasculature was first subtracted using the calculated plasma concentrations of NSN21778 and a value of 30 μl of blood/g of brain tissue (Kwon, 2001).

CC(=O)Nc1ccc(CCNc2ncnc3ccc(N)cc23)cc1 [NSN21778, N-{4-[2-(6-Amino-quinazolin-4-ylamino)-ethyl]-phenyl}-acetamide]
brain penetration: poor | levels in plasma: modest levels
